Results as given in ChEMBL document CHEMBL1147270, “Discorhabdins S, T, and U, new cytotoxic pyrroloiminoquinones from a deep-water Caribbean sponge of the genus Batzella” (J Nat Prod, 2003).

Tested on: PANC-1
Experiment: Cytotoxicity against human PANC1 cells after 96 hrs by MTT assay
Format: functional, cell-based
Settings: PANC-1, 96 h

Row | SMILES | IC50 [nM]
1 | CSC1=CC(=O)C(Br)=C[C@]12CCNC1=C2c2nccc3cn(C)c(c23)C1=O [DISCORHABDIN S] | 2600
2 | CSC1=CC(=O)C(Br)=C[C@]12C=CNC1=C2c2nccc3cn(C)c(c23)C1=O [DISCORHABDIN T] | 700
3 | CSC1=CC(=O)C(Br)=C[C@]12C=CNC1=C2C2=NCCc3cn(C)c(c32)C1=O [DISCORHABDIN U] | 69

Tested on: A549
Experiment: Cytotoxicity against human A549 cells after 96 hrs by MTT assay
Format: functional, cell-based
Settings: A549, 96 h

Row | SMILES | IC50 [nM]
4 | CSC1=CC(=O)C(Br)=C[C@]12CCNC1=C2c2nccc3cn(C)c(c23)C1=O [DISCORHABDIN S] | > 5000
5 | CSC1=CC(=O)C(Br)=C[C@]12C=CNC1=C2c2nccc3cn(C)c(c23)C1=O [DISCORHABDIN T] | > 5000
6 | CSC1=CC(=O)C(Br)=C[C@]12C=CNC1=C2C2=NCCc3cn(C)c(c32)C1=O [DISCORHABDIN U] | 170

Tested on: P388
Experiment: Cytotoxicity against mouse P388 cells after 48 hrs by MTT assay
Format: functional, cell-based
Settings: P388, 48 h

Row | SMILES | IC50 [nM]
7 | CSC1=CC(=O)C(Br)=C[C@]12CCNC1=C2c2nccc3cn(C)c(c23)C1=O [DISCORHABDIN S] | 3080
8 | CSC1=CC(=O)C(Br)=C[C@]12C=CNC1=C2c2nccc3cn(C)c(c23)C1=O [DISCORHABDIN T] | > 5000
9 | CSC1=CC(=O)C(Br)=C[C@]12C=CNC1=C2C2=NCCc3cn(C)c(c32)C1=O [DISCORHABDIN U] | 170
